# Data published in article PMC3366684, “Studies on the Synthesis of Derivatives of Marine-Derived Bostrycin and Their Structure-Activity Relationship against Tumor Cells” (Marine Drugs, 2012).
# Assays:
# MCF-7 cells = test: MTT cytotoxicity assay, MCF-7; assay type: cell-based, human; conditions: for IC50: MCF7, human breast cancer cell line, MTT, 48 h exposure, mean ± SD, three independent experiments
# Protocol: (§1) All compounds were evaluated for their in vitro cytotoxic activity against five human cancer cell lines including human breast MCF-7, human breast MDA-MB-435, human lung A549, human liver HepG2 and human colon HCT-116, and compared with their effects on the immortalized human breast epithelial cell line MCF-10A by MTT assay using epirubicin (an anticancer drug used widely in the clinic) as positive control.
# (§2) MCF-7, MDA-MB-435, A549, HepG2 and HCT-116 cells were cultured in Dulbecco’s modification Eagle’s medium (DMEM, Invitrogen, Carlsbad, CA, USA) supplemented with 10% fetal bovine serum (FBS, Hyclone, Logan, UT, USA), 2 mM L-glutamine, 100 μg/mL streptomycin and 100 U/mL penicillin (Invitrogen). MCF-10A cells were cultured in keratinocyte serum free medium (KSFM) supplemented with 0.1–0.2 ng/mL human recombinant epidermal growth factor and 20–30 μg/mL bovine pituitary extract (Invitrogen). The cells were incubated at 37 °C in a humidified atmosphere with 5% CO2.
# (§3) Cells were harvested during logarithmic growth phase and seeded in 96-well plates at a density of 1 × 10^4 cells/mL, and cultured at 37 °C in a humidified incubator (5% CO2) for 24 h, followed by exposure to various concentrations of compounds tested for 48 h. Subsequently 20 μL of MTT (Genview, Houston, TX, USA) solution (5 mg/mL) was added to each well and mixed, the cells were then incubated for an additional 4 h. Culture supernatant was moved, 150 μL of DMSO (Sangon Biotech, Shanghai, China) was added to each well to fully dissolve the MTT-formazan crystals. Cell growth inhibition was determined by measuring the absorbance (Abs) at λ = 570 nm using a microplate reader and calculated according to the following equation:
# (§4) Growth inhibition = (1 − OD of treated cells/OD of control cells) × 100%
# (§5) The half maximal inhibitory concentrations (IC50) were obtained from liner regression analysis of the concentration-response curves plotted for each tested compound.
# MDA-MB-435 cells = test: MTT cytotoxicity assay, MDA-MB-435; assay type: cell-based, human; conditions: for IC50: MDA-MB-435, human breast cancer cell line, MTT, 48 h exposure, mean ± SD, three independent experiments
# Protocol: as §1, §2, §3, §4, §5
# A549 cells = test: MTT cytotoxicity assay, A549; assay type: cell-based, human; conditions: for IC50: A549, human lung cancer cell line, MTT, 48 h exposure, mean ± SD, three independent experiments
# Protocol: as §1, §2, §3, §4, §5
# HepG2 cells = test: MTT cytotoxicity assay, HepG2; assay type: cell-based, human; conditions: for IC50: human liver cancer cell line, MTT, 48 h exposure, mean ± SD, three independent experiments
# Protocol: as §1, §2, §3, §4, §5
# HCT-116 cells = test: MTT cytotoxicity assay, HCT-116; assay type: cell-based, human; conditions: for IC50: HCT-116, human colon cancer cell line, MTT, 48 h exposure, mean ± SD, three independent experiments
# Protocol: as §1, §2, §3, §4, §5
# [1] = MTT cytotoxicity assay, MCF-10A; assay type: cell-based; conditions: MCF-10A cells, immortalized human breast epithelial cell line, 48 h exposure, mean ± SD, three independent experiments
# Protocol: as §1, §2, §3, §4, §5
# [2] = test system: five human cancer cell lines (MCF-7, MDA-MB-435, A549, HepG2, HCT-116); test: MTT cytotoxicity assay, panel of five human cancer cell lines (summary statements); assay type: cell-based; conditions: MCF-7, MDA-MB-435, A549, HepG2 and HCT-116, read-out: IC50 against the tested human cancer cell lines (summary over the panel)
# Protocol: as §1, §2
# Cells were harvested during logarithmic growth phase and seeded in 96-well plates at a density of 1 × 10^4 cells/mL, and cultured at 37 °C in a humidified incubator (5% CO2) for 24 h, followed by exposure to various concentrations of compounds tested for 48 h. […] Cell growth inhibition was determined by measuring the absorbance (Abs) at λ = 570 nm using a microplate reader and calculated according to the following equation: […]
# [3] = ratio of IC50 values, bostrycin vs compound
melting point [°C],Compound,IC50 (MCF-7 cells) [µM],"fold more active than bostrycin, MCF-7 (MCF-7 cells; [3]) [fold]",IC50 (MDA-MB-435 cells) [µM],"fold more active than bostrycin, MDA-MB-435 (MDA-MB-435 cells; [3]) [fold]",IC50 (A549 cells) [µM],"fold more active than bostrycin, A549 (A549 cells; [3]) [fold]",IC50 (HepG2 cells) [µM],"fold more active than bostrycin, HepG2 (HepG2 cells; [3]) [fold]",IC50 (HCT-116 cells) [µM],"fold more active than bostrycin, HCT-116 (HCT-116 cells; [3]) [fold]",IC50 at 48 h [1] [µM],"IC50 (HepG2 cells; Homo sapiens, HepG2, 48 h) [µM]",IC50 [2] [µM]
202 to 203,"C[C@]1(O)Cc2c(O)c3c(c(O)c2[C@H](O)[C@H]1O)C(=O)C=C(NCCO)C3=O [Compound 13, 6-(2′-Hydroxyethylamino)-6-demethoxybostrycin]",35.6 ± 1.4,–,> 50,–,> 50,–,–,–,35.9 ± 1.13,–,> 50,32.2 ± 2.43,–
153 to 154,"C[C@]1(O)Cc2c(O)c3c(c(O)c2[C@H](O)[C@H]1O)C(=O)C=C(NCc1ccccc1)C3=O [Compound 17, 6-(Benzylamino)-6-demethoxybostrycin]",28.7 ± 2.37,–,40.4 ± 1.49,–,21.3 ± 2.02,–,–,–,20.6 ± 0.37,–,19.8 ± 0.63,> 50,–
236 to 237,"CCCCNC1=CC(=O)c2c(O)c3c(c(O)c2C1=O)C[C@](C)(O)[C@H](O)[C@H]3O [Compound 11, 6-(n-Butylamino)-6-demethoxybostrycin]",1.08 ± 0.21,–,> 50,–,25.1 ± 0.74,–,–,–,36.5 ± 0.53,–,> 50,35.7 ± 1.29,–

# Second part, the compound before the results:
Compound,melting point [°C],IC50 (MCF-7 cells) [µM],"fold more active than bostrycin, MCF-7 (MCF-7 cells; [3]) [fold]",IC50 (MDA-MB-435 cells) [µM],"fold more active than bostrycin, MDA-MB-435 (MDA-MB-435 cells; [3]) [fold]",IC50 (A549 cells) [µM],"fold more active than bostrycin, A549 (A549 cells; [3]) [fold]",IC50 (HepG2 cells) [µM],"fold more active than bostrycin, HepG2 (HepG2 cells; [3]) [fold]",IC50 (HCT-116 cells) [µM],"fold more active than bostrycin, HCT-116 (HCT-116 cells; [3]) [fold]",IC50 at 48 h [1] [µM],"IC50 (HepG2 cells; Homo sapiens, HepG2, 48 h) [µM]",IC50 [2] [µM]
"C[C@]1(O)Cc2c(O)c3c(c(O)c2[C@H](O)[C@H]1O)C(=O)C1=C(SCCS1)C3=O [Compound 28, 6,7-(Ethan-1′,2′-yl-dithio)-6-demethoxybostrycin]",> 300,0.57 ± 0.04,3.8,0.63 ± 0.45,4.5,0.37 ± 0.04,7.1,0.82 ± 0.01,9.4,0.68 ± 0.08,7.0,0.81 ± 0.11,–,–
"COC1=CC(=O)c2c(O)c3c(c(O)c2C1=O)C[C@]1(C)OC(=O)O[C@@H]1[C@H]3O [Compound 8, 2,3-O-(carbonyl) Bostrycin]",246 to 247,1.59 ± 0.16,–,1.26 ± 0.12,–,0.52 ± 0.02,–,–,–,2.92 ± 0.06,–,21.7 ± 1.45,3.32 ± 0.58,–
"COc1cc(O)c2c(c1O)C(=O)c1cc(C)ccc1C2=O [Compound 4, Austrocortinin]",232 to 233,> 50,–,41.6 ± 2.63,–,> 50,–,–,–,> 50,–,> 50,> 50,> 50
"COc1ccc(CNC2=CC(=O)c3c(O)c4c(c(O)c3C2=O)C[C@](C)(O)[C@H](O)[C@H]4O)cc1 [Compound 18, 6-(p-Methoxybenzylamino)-6-demethoxybostrycin]",149 to 150,9.17 ± 0.28,–,25.6 ± 1.71,–,15.2 ± 0.42,–,–,–,13.6 ± 1.85,–,27.7 ± 0.93,> 50,–
"CCCCSC1=C(SCCCC)C(=O)c2c(O)c3c(c(O)c2C1=O)C[C@](C)(O)[C@H](O)[C@H]3O [Compound 24, 6,7-bis(n-Butylthio)-6-demethoxybostrycin]",124 to 125,2.45 ± 0.48,–,7.05 ± 0.56,–,4.06 ± 0.42,–,–,–,3.25 ± 0.54,–,30.6 ± 2.54,4.03 ± 0.13,–
